From PubChem BioAssay (NCI)
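Results reflect a 48-hour exposure of cells in 96-well plates to compound at five concentrations. The concentration for 50% growth inhibition is given as GI50. At the TGI there is no net growth.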

Key:
Assay in all cases: inhibition of tumour cell growth, NCI panel, 48 h; in the data active = GI50 below about 0.43 µM; inactive = the rest
786-0 renal = test system: 786-0 renal
SNB-75 CNS = test system: SNB-75 CNS
HCT-116 colon = test system: HCT-116 colon
NCI/ADR-RES ovarian = test system: NCI/ADR-RES ovarian
NCI-H23 lung = test system: NCI-H23 lung
SK-MEL-28 melanoma = test system: SK-MEL-28 melanoma
OVCAR-8 ovarian = test system: OVCAR-8 ovarian
HOP-92 NSCLC = test system: HOP-92 NSCLC
T-47D breast = test system: T-47D breast
COLO 205 colon = test system: COLO 205 colon
SK-MEL-5 melanoma = test system: SK-MEL-5 melanoma
HCC-2998 colon = test system: HCC-2998 colon
LOX IMVI melanoma = test system: LOX IMVI melanoma
SF-539 CNS = test system: SF-539 CNS
MOLT-4 leukemia = test system: MOLT-4 leukemia
NCI-H226 lung = test system: NCI-H226 lung
M14 melanoma = test system: M14 melanoma
PC-3 prostate = test system: PC-3 prostate
SR leukemia = test system: SR leukemia
HT29 colon = test system: HT29 colon
SF-268 CNS = test system: SF-268 CNS
SK-MEL-2 melanoma = test system: SK-MEL-2 melanoma
UACC-62 melanoma = test system: UACC-62 melanoma
BT-549 breast = test system: BT-549 breast
OVCAR-3 ovarian = test system: OVCAR-3 ovarian
NCI-H522 lung = test system: NCI-H522 lung
SW-620 colon = test system: SW-620 colon
MDA-MB-231 breast = test system: MDA-MB-231 breast
RXF 393 renal = test system: RXF 393 renal
NCI-H460 lung = test system: NCI-H460 lung
HL-60(TB) leukemia = test system: HL-60(TB) leukemia
SNB-19 CNS = test system: SNB-19 CNS
KM12 colon = test system: KM12 colon
OVCAR-5 ovarian = test system: OVCAR-5 ovarian
SK-OV-3 ovarian = test system: SK-OV-3 ovarian
OVCAR-4 ovarian = test system: OVCAR-4 ovarian
HS 578T breast = test system: HS 578T breast
A498 renal = test system: A498 renal
TK-10 renal = test system: TK-10 renal
MDA-MB-435 = test system: MDA-MB-435
CCRF-CEM leukemia = test system: CCRF-CEM leukemia
IGROV1 ovarian = test system: IGROV1 ovarian
MALME-3M melanoma = test system: MALME-3M melanoma
ACHN renal = test system: ACHN renal
CAKI-1 renal = test system: CAKI-1 renal
U251 CNS = test system: U251 CNS
SF-295 CNS = test system: SF-295 CNS
UO-31 renal = test system: UO-31 renal
HOP-62 NSCLC = test system: HOP-62 NSCLC
A549 NSCLC = test system: A549 NSCLC
MCF7 breast = test system: MCF7 breast
HCT-15 colon = test system: HCT-15 colon
RPMI-8226 leukemia = test system: RPMI-8226 leukemia
K-562 leukemia = test system: K-562 leukemia
UACC-257 melanoma = test system: UACC-257 melanoma
DU-145 prostate = test system: DU-145 prostate
SN12C renal = test system: SN12C renal
EKVX NSCLC = test system: EKVX NSCLC

N=c1ccn2c(n1)O[C@@H]1[C@@H](O)[C@H](CO)O[C@@H]12
active: GI50 (MOLT-4 leukemia) 0.161 µM | GI50 (NCI-H522 lung) 0.294 µM | GI50 (CCRF-CEM leukemia) 0.0773 µM | GI50 (A549 NSCLC) 0.41 µM | GI50 (MCF7 breast) 0.234 µM
inactive: GI50 (786-0 renal) 2.46 µM | GI50 (SNB-75 CNS) 1.58 µM | GI50 (HCT-116 colon) 0.519 µM | GI50 (NCI/ADR-RES ovarian) 2.08 µM | GI50 (NCI-H23 lung) 1.09 µM | GI50 (SK-MEL-28 melanoma) 4.89 µM | GI50 (HOP-92 NSCLC) 9.94 µM | GI50 (T-47D breast) 8.96 µM | GI50 (COLO 205 colon) 2.41 µM | GI50 (SK-MEL-5 melanoma) 15.5 µM | GI50 (HCC-2998 colon) 21.2 µM | GI50 (LOX IMVI melanoma) 6.97 µM | GI50 (SF-539 CNS) 63.9 µM | GI50 (NCI-H226 lung) 3.52 µM | GI50 (M14 melanoma) 0.428 µM | GI50 (PC-3 prostate) 7.57 µM | GI50 (SR leukemia) 0.962 µM | GI50 (HT29 colon) 17 µM | GI50 (SF-268 CNS) 4.8 µM | GI50 (SK-MEL-2 melanoma) 15.8 µM | GI50 (UACC-62 melanoma) 4.93 µM | GI50 (BT-549 breast) 41.3 µM | GI50 (SW-620 colon) 4.59 µM | GI50 (MDA-MB-231 breast) > 100 µM | GI50 (RXF 393 renal) 18.1 µM | GI50 (NCI-H460 lung) 0.446 µM | GI50 (HL-60(TB) leukemia) 8.41 µM | GI50 (SNB-19 CNS) 1.44 µM | GI50 (KM12 colon) 27.3 µM | GI50 (OVCAR-5 ovarian) 49.3 µM | GI50 (SK-OV-3 ovarian) 2.85 µM | GI50 (OVCAR-4 ovarian) 10.4 µM | GI50 (HS 578T breast) > 100 µM | GI50 (A498 renal) > 100 µM | GI50 (TK-10 renal) > 100 µM | GI50 (MDA-MB-435) 4.13 µM | GI50 (IGROV1 ovarian) 11 µM | GI50 (MALME-3M melanoma) 2.57 µM | GI50 (ACHN renal) 1.45 µM | GI50 (U251 CNS) 6.89 µM | GI50 (SF-295 CNS) 16.2 µM | GI50 (UO-31 renal) 1.31 µM | GI50 (HOP-62 NSCLC) 0.783 µM | GI50 (HCT-15 colon) 11.4 µM | GI50 (RPMI-8226 leukemia) > 100 µM | GI50 (K-562 leukemia) > 100 µM | GI50 (UACC-257 melanoma) 35 µM | GI50 (DU-145 prostate) 2.42 µM | GI50 (SN12C renal) 2.86 µM | GI50 (EKVX NSCLC) > 100 µM
20.8 µM: TGI (UO-31 renal)
3.39 µM: TGI (M14 melanoma)
23 µM: TGI (HOP-62 NSCLC)
> 100 µM: TGI (HCT-116 colon) | TGI (NCI/ADR-RES ovarian) | TGI (NCI-H23 lung) | TGI (SK-MEL-28 melanoma) | TGI (OVCAR-8 ovarian) | TGI (HOP-92 NSCLC) | TGI (T-47D breast) | TGI (COLO 205 colon) | TGI (SK-MEL-5 melanoma) | TGI (HCC-2998 colon) | TGI (LOX IMVI melanoma) | TGI (SF-539 CNS) | TGI (MOLT-4 leukemia) | TGI (NCI-H226 lung) | TGI (PC-3 prostate) | TGI (HT29 colon) | TGI (SF-268 CNS) | TGI (SK-MEL-2 melanoma) | TGI (UACC-62 melanoma) | TGI (BT-549 breast) | TGI (OVCAR-3 ovarian) | TGI (NCI-H522 lung) | TGI (SW-620 colon) | TGI (MDA-MB-231 breast) | TGI (RXF 393 renal) | TGI (NCI-H460 lung) | TGI (HL-60(TB) leukemia) | TGI (SNB-19 CNS) | TGI (KM12 colon) | TGI (OVCAR-5 ovarian) | TGI (SK-OV-3 ovarian) | TGI (OVCAR-4 ovarian) | TGI (HS 578T breast) | TGI (A498 renal) | TGI (TK-10 renal) | TGI (MDA-MB-435) | TGI (CCRF-CEM leukemia) | TGI (IGROV1 ovarian) | TGI (MALME-3M melanoma) | TGI (ACHN renal) | TGI (CAKI-1 renal) | TGI (U251 CNS) | TGI (SF-295 CNS) | TGI (A549 NSCLC) | TGI (MCF7 breast) | TGI (HCT-15 colon) | TGI (RPMI-8226 leukemia) | TGI (K-562 leukemia) | TGI (UACC-257 melanoma) | TGI (DU-145 prostate) | TGI (SN12C renal) | TGI (EKVX NSCLC)
50.3 µM: TGI (786-0 renal)
21 µM: TGI (SR leukemia)
47.6 µM: TGI (SNB-75 CNS)
